Source: patent publication US8952024B2, “Herbicidal pyrimidone derivatives” (E I du Pont de Nemours and Company, priority 2009, dated 2015)

Columns and labels:
Format in all cases: in vivo
[1] = test system: giant foxtail (Setaria faberii); experiment: Test B pre-/postemergence plant response
Outline: (§1)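 Ratings reflect visual comparison with untreated controls 13 to 15 days after application, from 0 (no effect) to 100 (complete control). Application was preemergence to seeded loam/sand soil or postemergence to 1- to 4-leaf plants, with compound in a non-phytotoxic, surfactant-containing solvent.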

[2] = test system: cocklebur (Xanthium strumarium); experiment: Test B pre-/postemergence plant response
Outline: as §1

[3] = test system: green foxtail (Setaria viridis); experiment: Test B pre-/postemergence plant response
Outline: as §1

[4] = test system: pigweed (Amaranthus retroflexus); experiment: Test A pre-/postemergence plant response
Outline: (§2)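 Injury scores (0, no effect; 100, complete control) come from visual comparison with untreated controls roughly ten days post-treatment. Test chemicals in a surfactant-containing non-phytotoxic solvent were applied as a directed soil spray preemergence and to one- to two-leaf seedlings postemergence.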

[5] = test system: barnyardgrass (Echinochloa crus-galli); experiment: Test A pre-/postemergence plant response
Outline: as §2

[6] = test system: large crabgrass (Digitaria sanguinalis); experiment: Test A pre-/postemergence plant response
Outline: as §2

[7] = test system: giant foxtail (Setaria faberii); experiment: Test A pre-/postemergence plant response
Outline: as §2

[8] = test system: velvetleaf (Abutilon theophrasti); experiment: Test A pre-/postemergence plant response
Outline: as §2

corn (Zea mays) = experiment: Test A pre-/postemergence plant response
Outline: as §2

[9] = test system: morningglory (Ipomoea spp.); experiment: Test A pre-/postemergence plant response; settings: approx. ten days; for Plant response rating, Morningglory: 500 g ai/ha
Outline: as §2

[10] = test system: wheat (Triticum aestivum); experiment: Test A pre-/postemergence plant response
Outline: as §2

[11] = 31 g ai/ha, postemergence, scale 0 to 100, 0 is no effect, 100 is complete control
[12] = 250 g ai/ha, Preemergence, 0 to 100 scale
[13] = Postemergence, 62 g ai/ha, scale 0 (no effect) to 100 (complete control), 13 to 15 days
[14] = Postemergence, 125 g ai/ha, visual rating after 13 to 15 days, scale 0 (no effect) to 100 (complete control)
[15] = Postemergence, 250 g ai/ha, scale 0 to 100 (0 no effect, 100 complete control)
[16] = Preemergence, 31 g ai/ha, scale 0 to 100 (0 no effect, 100 complete control)
[17] = Preemergence, 62 g ai/ha, scale 0 to 100, 0 no effect, 100 complete control
[18] = Preemergence, 125 g ai/ha, scale 0 to 100, 0 no effect, 100 complete control
[19] = Postemergence, 125 g ai/ha, visual injury, 0 to 100 scale (0 no effect, 100 complete control), approx. ten days
[20] = Postemergence, 500 g ai/ha, 0 to 100 scale, 0 = no effect, 100 = complete control, approx. ten days
[21] = Preemergence, 125 g ai/ha, 0 to 100 scale, 0 = no effect, 100 = complete control
[22] = Preemergence, 500 g ai/ha, visual injury, 0 to 100 scale (0 no effect, 100 complete control), approx. ten days

Cc1cccc(-n2c(-c3ccccc3)ncc(C(=O)C3=C(O)CCCC3=O)c2=O)c1F [Compound 58]
Plant response rating, Foxtail, Giant [1, 11]: 75 | Plant response rating, Foxtail, Giant [1, 12]: 75 | Plant response rating, Foxtail, Giant [1, 13]: 85 | Plant response rating, Foxtail, Giant [1, 14]: 90 | Plant response rating, Foxtail, Giant [1, 15]: 98 | Plant response rating, Foxtail, Giant [1, 16]: 10 | Plant response rating, Foxtail, Giant [1, 17]: 20 | Plant response rating, Foxtail, Giant [1, 18]: 75 | Plant response rating, Cocklebur [2, 11]: 85 | Plant response rating, Cocklebur [2, 12]: 65 | Plant response rating, Cocklebur [2, 13]: 85 | Plant response rating, Cocklebur [2, 14]: 85 | Plant response rating, Cocklebur [2, 15]: 90 | Plant response rating, Cocklebur [2, 16]: 0 | Plant response rating, Cocklebur [2, 17]: 0 | Plant response rating, Cocklebur [2, 18]: 10 | Plant response rating, Foxtail, Green [3, 11]: 75 | Plant response rating, Foxtail, Green [3, 12]: 100 | Plant response rating, Foxtail, Green [3, 13]: 90 | Plant response rating, Foxtail, Green [3, 14]: 98 | Plant response rating, Foxtail, Green [3, 15]: 100 | Plant response rating, Foxtail, Green [3, 16]: 0 | Plant response rating, Foxtail, Green [3, 17]: 5 | Plant response rating, Foxtail, Green [3, 18]: 70 | Pigweed plant response rating [4, 19]: 100 | Plant response rating, Pigweed [4, 20]: 100 | Plant response rating, Pigweed [4, 21]: 70 | Plant response rating, Pigweed [4, 22]: 100 | Barnyardgrass plant response rating [5, 19]: 50 | Plant response rating, Barnyardgrass [5, 20]: 90 | Plant response rating, Barnyardgrass [5, 21]: 30 | Plant response rating, Barnyardgrass [5, 22]: 90 | Crabgrass, Large plant response rating [6, 19]: 80 | Plant response rating, Crabgrass, Large [6, 20]: 90 | Plant response rating, Crabgrass, Large [6, 21]: 70 | Plant response rating, Crabgrass, Large [6, 22]: 90 | Foxtail, Giant plant response rating [7, 19]: 70 | Plant response rating, Foxtail, Giant [7, 20]: 90 | Plant response rating, Foxtail, Giant [7, 21]: 50 | Plant response rating, Foxtail, Giant [7, 22]: 80 | Velvetleaf plant response rating [8, 19]: 100 | Plant response rating, Velvetleaf [8, 20]: 100 | Plant response rating, Velvetleaf [8, 21]: 70 | Plant response rating, Velvetleaf [8, 22]: 100 | Corn plant response rating (corn (Zea mays); [19]): 0 | Plant response rating, Corn (corn (Zea mays); [20]): 20 | Plant response rating, Corn (corn (Zea mays); [21]): 0 | Plant response rating, Corn (corn (Zea mays); [22]): 0 | Morningglory plant response rating ([9]; Postemergence, 125 g ai/ha, visual injury, 0 to 100 scale (0 no effect, 100 complete control)): 80 | Plant response rating, Morningglory ([9]; Postemergence, 0 to 100 scale, 0 = no effect, 100 = complete control): 100 | Plant response rating, Morningglory ([9]; Preemergence, visual injury, 0 to 100 scale (0 no effect, 100 complete control)): 100 | Wheat plant response rating [10, 19]: 0 | Plant response rating, Wheat [10, 20]: 0 | Plant response rating, Wheat [10, 21]: 0 | Plant response rating, Wheat [10, 22]: 0
